Assay results reported in PubChem BioAssay (NCI).
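Grown in 96-well plates, cells were treated for 48 hours with each compound at five concentrations. Insufficient inhibition: endpoint recorded as highest concentration tested. TGI denotes the concentration required for complete inhibition of growth.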

Legend:
Experiment in all cases: NCI-60 cell line screen, 48 h
[1] = system: SK-MEL-2 melanoma
[2] = system: HCC-2998 colon
[3] = system: CCRF-CEM leukemia
[4] = system: DLD-1 colon
[5] = system: HOP-92 NSCLC
[6] = system: UO-31 renal
[7] = system: SK-MEL-5 melanoma
[8] = system: SF-539 CNS
[9] = system: LOX IMVI melanoma
[10] = system: SN12C renal
[11] = system: M14 melanoma
[12] = system: LXFL 529 NSCLC
[13] = system: OVCAR-3 ovarian
[14] = system: HCT-116 colon
[15] = system: DMS 273 small cell lung
[16] = system: SNB-19 CNS
[17] = system: SF-295 CNS
[18] = system: KM12 colon
[19] = system: HCT-15 colon
[20] = system: NCI-H460 lung
[21] = system: NCI-H226 lung
[22] = system: RPMI-8226 leukemia
[23] = system: SW-620 colon
[24] = system: IGROV1 ovarian
[25] = system: HOP-62 NSCLC
[26] = system: K-562 leukemia
[27] = system: EKVX NSCLC
[28] = system: SF-268 CNS
[29] = system: HT29 colon
[30] = system: DMS 114 small cell lung
[31] = system: SK-MEL-28 melanoma
[32] = system: UACC-62 melanoma
[33] = system: OVCAR-5 ovarian
[34] = system: ACHN renal
[35] = system: KM20L2 colon
[36] = system: SNB-78 CNS
[37] = system: MOLT-4 leukemia
[38] = system: OVCAR-4 ovarian
[39] = system: RXF 393 renal
[40] = system: HL-60(TB) leukemia
[41] = system: TK-10 renal
[42] = system: COLO 205 colon
[43] = system: OVCAR-8 ovarian
[44] = system: UACC-257 melanoma
[45] = system: NCI-H23 lung
[46] = system: SK-OV-3 ovarian
[47] = system: MALME-3M melanoma
[48] = system: 786-0 renal
[49] = system: U251 CNS
[50] = system: M19-MEL melanoma
[51] = system: NCI-H522 lung
[52] = system: SR leukemia
[53] = system: CAKI-1 renal
[54] = system: A549 NSCLC

With NC(=O)/N=C/c1c(O)c2ccccc2oc1=O the TGI [1] was > 100 µM, the TGI [2] was > 100 µM and the TGI [3] was > 100 µM. The TGI [4] was > 100 µM, the TGI [5] was > 100 µM and the TGI [6] was > 100 µM. The TGI [7] was > 100 µM, the TGI [8] was > 100 µM and the TGI [9] was > 100 µM. The TGI [10] was > 100 µM, the TGI [11] was > 100 µM and the TGI [12] was > 100 µM. The TGI [13] was > 100 µM, the TGI [14] was > 100 µM and the TGI [15] was > 100 µM. The TGI [16] was > 100 µM, the TGI [17] was > 100 µM and the TGI [18] was > 100 µM. For the same compound, the TGI [19] was > 100 µM, the TGI [20] was > 100 µM and the TGI [21] was > 100 µM. For the same compound, the TGI [22] was > 100 µM, the TGI [23] was > 100 µM and the TGI [24] was > 100 µM. For the same compound, the TGI [25] was > 100 µM, the TGI [26] was > 100 µM and the TGI [27] was > 100 µM. The TGI [28] was > 100 µM, the TGI [29] was > 100 µM and the TGI [30] was > 100 µM. For the same compound, the TGI [31] was > 100 µM, the TGI [32] was > 100 µM and the TGI [33] was > 100 µM. For the same compound, the TGI [34] was > 100 µM, the TGI [35] was > 100 µM and the TGI [36] was > 100 µM. The TGI [37] was > 100 µM, the TGI [38] was > 100 µM and the TGI [39] was 82.4 µM. The TGI [40] was > 100 µM, the TGI [41] was > 100 µM and the TGI [42] was > 100 µM. For the same compound, the TGI [43] was > 100 µM, the TGI [44] was > 100 µM and the TGI [45] was > 100 µM.

In the case of CC#COS(=O)(=O)c1ccc(C)cc1, the TGI [1] is reported as > 100 µM, the TGI [2] is reported as > 100 µM and the TGI [3] is reported as > 100 µM. The TGI [4] was > 100 µM, the TGI [6] was > 100 µM and the TGI [7] was > 100 µM. The TGI [8] was > 100 µM, the TGI [9] was > 100 µM and the TGI [10] was > 100 µM. The TGI [11] was > 100 µM, the TGI [12] was > 100 µM and the TGI [13] was > 100 µM. For the same compound, the TGI [46] was > 100 µM, the TGI [14] was > 100 µM and the TGI [47] was > 100 µM. For the same compound, the TGI [16] was > 100 µM, the TGI [48] was > 100 µM and the TGI [17] was > 100 µM. The TGI [18] was > 100 µM, the TGI [19] was > 100 µM and the TGI [49] was > 100 µM. For the same compound, the TGI [20] was > 100 µM, the TGI [50] was > 100 µM and the TGI [21] was > 100 µM. For the same compound, the TGI [22] was 60.2 µM, the TGI [23] was > 100 µM and the TGI [24] was > 100 µM. The TGI [25] was > 100 µM, the TGI [26] was > 100 µM and the TGI [27] was > 100 µM. For the same compound, the TGI [28] was > 100 µM, the TGI [29] was > 100 µM and the TGI [30] was > 100 µM. The TGI [32] was > 100 µM, the TGI [33] was > 100 µM and the TGI [34] was > 100 µM. The TGI [35] was > 100 µM, the TGI [36] was > 100 µM and the TGI [37] was > 100 µM. The TGI [51] was > 100 µM, the TGI [52] was > 100 µM and the TGI [53] was > 100 µM. For the same compound, the TGI [38] was > 100 µM, the TGI [54] was > 100 µM and the TGI [40] was 59.8 µM. For the same compound, the TGI [41] was > 100 µM, the TGI [42] was > 100 µM and the TGI [43] was > 100 µM. The TGI [44] was > 100 µM and the TGI [45] was > 100 µM.
